Experimental data taken from patent US9133129B2, “Bicyclic compound” (TAKEDA PHARMACEUTICAL COMPANY LIMITED, priority 2011, dated 2015).

Experiments:
human ACC2 = target: T1, human ACC2 (Homo sapiens, UniProt O00763); experiment: ACC2 inhibitory activity, malachite green assay with recombinant ACC2 (Nd); format: biochemical; settings: for inhibition at 10 µM / ACC2 inhibitory rates (%) at 10 μM: 10 μM of the test compound; for inhibition at 10 µM: read-out: ACC2 inhibitory rates (%) at 10 μM
T1 construct: made in house; host or cells: SF-9 insect cells, recombinant baculovirus BAC-ACC2 (Nd)
Method: The ACC2 inhibitory action of the compound of the present invention was evaluated by the following method.
(1) Cloning of Human ACC2 Gene and Preparation of Recombinant Baculovirus
Human ACC2 gene was cloned by PCR using a human skeletal muscle cDNA library (Clontech) as a template and Primer 1 and Primer 2 shown below. Primer 1 and Primer 2 were prepared by adding SalI, XbaI restriction enzyme recognition sequences based on the information of the base sequence of human ACC2 gene (Genbank Accession U89344).
(§1) PCR was performed using Pyrobest DNA polymerase (TAKARA BIO INC.). The obtained PCR product was cloned to pT7 Blue vector (Novagen) and after confirmation of the base sequence, digested with restriction enzymes SalI and XbaI. The obtained DNA fragment was inserted into pFAST-BacHTa (Invitrogen) digested with restriction enzymes SalI and XbaI to give expression plasmid ACC2/pFAST-BacHTa.
A plasmid for expression of ACC2 without a mitochondrial targeting sequence was prepared by PCR using the expression plasmid as a template, and Primer 3 (SalI restriction enzyme recognition sequence was added) and Primer 4, which are prepared by reference to the information of human ACC2 gene base sequence (Genbank Accession U89344).
as §1, with “Pyrobest-DNA” for “Pyrobest DNA”, “AflII.” for “XbaI.”, “ACC2/pFAST-BacHTa” for “pFAST-BacHTa (Invitrogen)”, “AflII” for “XbaI”, “ACC2mito7/pFAST-BacHTa.” for “ACC2/pFAST-BacHTa.”
Using the expression plasmid ACC2mito7/pFAST-BacHTa and BAC-TO-BAC Baculovirus Expression System (Invitrogen), virus stock BAC-ACC2 of recombinant Baculovirus (N terminal deleted (hereinafter Nd)) was prepared.
(2) Preparation of ACC2 (Nd) Protein
SF-9 cells (Invitrogen) were inoculated to a medium (10 L) for insect cells (Sf-900IISFM medium (Invitrogen) containing 5% fetal bovine serum (Trace), 50 mg/L Gentamicin (Wako), 0.1% Pluronic F-68 (Invitrogen)) at 1.0×10^6 cells/mL, and cultured with shaking in Wave Bioreactor (GE Health Care) at 27° C., 20 rpm, rocking angle 10°, oxygen concentration 30%.
On day 2 of the culture, recombinant Baculovirus BAC-ACC2 (Nd) was added, and the cells were cultured for 3 days. The culture medium was centrifuged at 1000×g for 10 min to give virus-infected cells. The cells were washed with phosphate buffered saline (Invitrogen) and centrifuged under the same conditions. The obtained cells were cryopreserved at −80° C.
The cryopreserved cells were thawed in ice and suspended in 900 mL of 25 mM HEPES buffer (pH 7.5) containing 10% Glycerol, 0.3 M NaCl, 1 mM EDTA, 25 mM Sodium β-Glycerophosphate and 1 mM Sodium Orthovanadate, and supplemented with Complete Protease Inhibitor (Roche). The obtained suspension was homogenized three times in a polytron homogenizer (Kinematica) at 20,000 rpm for 30 sec. The obtained cell disruption solution was clarified by centrifugation at 186000×g for 60 min. To the supernatant was added 5 mL of AF-chelate 650M Ni chelated carrier (TOSOH), and the mixture was rotated at 4° C. for 1 hr, and centrifuged at 1000×g for 5 min, and the carrier was transferred to opened column. The column was washed with 50 mL of buffer A (50 mM HEPES (pH 7.5) containing 0.3 M NaCl), further washed with buffer A containing 20 mM Imidazole, and eluted with buffer A containing 250 mM Imidazole. The eluate was concentrated with Amicon Ultra 15 (Millipore) with a molecular weight cut off of 50K. The obtained concentrate was filtered using gelfiltration column (HiLoad 26/60 Superdex200 prep grade) (GE Health Care) with 50 mM HEPES buffer (pH 7.5) containing 10 mM MgCl2, 2 mM Dithiothreitol, 10 mM Tripotassium Citrate and 0.3 M NaCl to give ACC2 (Nd). The obtained ACC2 (Nd) was cryopreserved at −80° C.
(3) Measurement of ACC2 Inhibitory Activity […]

T1 sequence (O00763 117-2458 limits assumed): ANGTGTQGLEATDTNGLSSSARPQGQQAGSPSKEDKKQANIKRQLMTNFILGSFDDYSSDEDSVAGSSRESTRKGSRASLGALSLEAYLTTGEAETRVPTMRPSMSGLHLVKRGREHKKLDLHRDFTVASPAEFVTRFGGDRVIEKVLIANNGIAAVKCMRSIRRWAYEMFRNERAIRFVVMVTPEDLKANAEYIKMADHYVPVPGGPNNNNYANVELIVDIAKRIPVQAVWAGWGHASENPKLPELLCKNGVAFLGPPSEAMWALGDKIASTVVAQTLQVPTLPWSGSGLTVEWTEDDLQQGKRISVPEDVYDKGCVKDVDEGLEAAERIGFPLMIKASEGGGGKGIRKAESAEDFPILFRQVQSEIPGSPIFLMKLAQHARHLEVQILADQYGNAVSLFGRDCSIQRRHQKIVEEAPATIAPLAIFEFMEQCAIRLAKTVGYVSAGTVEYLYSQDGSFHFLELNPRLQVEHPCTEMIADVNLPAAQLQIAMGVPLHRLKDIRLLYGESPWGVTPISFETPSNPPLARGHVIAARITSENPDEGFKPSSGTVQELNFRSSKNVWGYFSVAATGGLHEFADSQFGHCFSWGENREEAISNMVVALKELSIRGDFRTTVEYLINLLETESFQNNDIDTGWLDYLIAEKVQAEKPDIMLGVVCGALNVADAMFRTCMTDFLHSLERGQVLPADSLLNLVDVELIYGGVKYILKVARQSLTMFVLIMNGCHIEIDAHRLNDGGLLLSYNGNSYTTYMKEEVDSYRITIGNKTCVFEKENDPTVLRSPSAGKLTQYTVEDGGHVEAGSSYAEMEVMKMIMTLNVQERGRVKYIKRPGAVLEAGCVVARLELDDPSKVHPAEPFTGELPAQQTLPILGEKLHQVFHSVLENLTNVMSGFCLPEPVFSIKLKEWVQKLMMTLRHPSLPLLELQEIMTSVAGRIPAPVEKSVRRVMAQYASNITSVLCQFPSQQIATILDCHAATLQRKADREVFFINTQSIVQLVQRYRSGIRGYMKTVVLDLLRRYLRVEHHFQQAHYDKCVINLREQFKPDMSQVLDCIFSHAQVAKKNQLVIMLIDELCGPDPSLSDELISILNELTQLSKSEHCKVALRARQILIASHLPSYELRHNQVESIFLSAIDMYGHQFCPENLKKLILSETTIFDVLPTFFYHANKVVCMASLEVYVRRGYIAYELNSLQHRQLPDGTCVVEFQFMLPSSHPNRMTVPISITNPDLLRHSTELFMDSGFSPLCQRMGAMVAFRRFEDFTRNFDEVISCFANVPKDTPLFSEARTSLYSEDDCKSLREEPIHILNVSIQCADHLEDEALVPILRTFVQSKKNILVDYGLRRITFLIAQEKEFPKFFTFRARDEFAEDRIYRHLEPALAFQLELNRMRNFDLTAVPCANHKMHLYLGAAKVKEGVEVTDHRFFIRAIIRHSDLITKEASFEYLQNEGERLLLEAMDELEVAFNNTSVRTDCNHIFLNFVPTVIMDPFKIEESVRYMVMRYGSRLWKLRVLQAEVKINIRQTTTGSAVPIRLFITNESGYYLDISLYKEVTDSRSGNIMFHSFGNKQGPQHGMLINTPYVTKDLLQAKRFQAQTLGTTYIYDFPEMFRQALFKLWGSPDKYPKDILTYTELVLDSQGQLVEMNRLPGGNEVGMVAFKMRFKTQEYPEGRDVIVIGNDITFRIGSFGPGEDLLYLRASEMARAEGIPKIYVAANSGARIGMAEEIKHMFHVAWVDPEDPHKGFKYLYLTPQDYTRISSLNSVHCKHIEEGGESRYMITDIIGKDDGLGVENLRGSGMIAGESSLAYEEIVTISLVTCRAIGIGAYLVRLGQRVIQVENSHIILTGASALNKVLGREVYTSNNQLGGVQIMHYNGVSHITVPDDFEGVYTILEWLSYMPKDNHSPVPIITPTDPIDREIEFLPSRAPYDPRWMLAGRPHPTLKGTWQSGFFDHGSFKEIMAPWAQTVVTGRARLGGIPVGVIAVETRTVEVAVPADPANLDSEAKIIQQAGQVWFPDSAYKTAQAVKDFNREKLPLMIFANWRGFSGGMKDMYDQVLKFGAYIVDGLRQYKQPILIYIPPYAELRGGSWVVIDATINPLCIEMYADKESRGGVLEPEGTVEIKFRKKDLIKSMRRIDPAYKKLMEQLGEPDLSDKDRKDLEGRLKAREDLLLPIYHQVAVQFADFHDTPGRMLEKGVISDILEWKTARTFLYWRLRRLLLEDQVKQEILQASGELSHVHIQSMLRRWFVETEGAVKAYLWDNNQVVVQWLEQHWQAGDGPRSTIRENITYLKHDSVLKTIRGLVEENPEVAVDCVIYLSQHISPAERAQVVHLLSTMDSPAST

| SMILES | inhibition at 10 µM (human ACC2) | further results |
| --- | --- | --- |
| CC(=O)N[C@@H](C)COc1ccc2nc(-c3ccc(OCC4CC4)c(F)c3)oc2c1 [Example 1, N-((2S)-1-((2-(4-(cyclopropylmethoxy)-3-fluorophenyl)-1,3-benzoxazol-6-yl)oxy)propan-2-yl)acetamide] | 95% | melting point: 174 °C |
| C[C@@H](COc1ccc2nc(-c3ccc(OCC4CC4)c(F)c3)oc2c1)NC(=O)N(C)C [Example 10, 3-((2S)-1-((2-(4-(cyclopropylmethoxy)-3-fluorophenyl)-1,3-benzoxazol-6-yl)oxy)propan-2-yl)-1,1-dimethylurea] | 91% |  |
| CC(=O)N[C@@H](C)COc1ccc2nc(-c3ccc(OCC4CC4)c(Cl)c3)oc2c1 [Example 29, N-((2S)-1-((2-(3-chloro-4-(cyclopropylmethoxy)phenyl)-1,3-benzoxazol-6-yl)oxy)propan-2-yl)acetamide] |  | melting point: 156 to 159 °C |
| CC(=O)N[C@@H](C)COc1ccc2nc(-c3ccc(OCC4CC4)c(F)c3)oc2c1F [Example 37, N-((2S)-1-((2-(4-(cyclopropylmethoxy)-3-fluorophenyl)-7-fluoro-1,3-benzoxazol-6-yl)oxy)propan-2-yl)acetamide] | 90% | melting point: 163 to 164 °C |
| CC(=O)N[C@@H](C)COc1cc(F)c2nc(-c3ccc(OCC4CC4)c(F)c3)oc2c1 [Example 43, N-((2S)-1-((2-(4-(cyclopropylmethoxy)-3-fluorophenyl)-4-fluoro-1,3-benzoxazol-6-yl)oxy)propan-2-yl)acetamide] | 92% |  |
| CC(=O)N[C@@H](C)COc1cc2oc(-c3cc(F)c(OCC4CC4)c(F)c3)nc2cn1 [Example 47, N-((2S)-1-((2-(4-(cyclopropylmethoxy)-3,5-difluorophenyl)[1,3]oxazolo[4,5-c]pyridin-6-yl)oxy)propan-2-yl)acetamide] | 91% |  |
| CC(=O)N[C@@H](C)COc1cc2oc(-c3cc(F)c(OCC4CC4)cc3F)nc2cn1 [Example 48, N-((2S)-1-((2-(4-(cyclopropylmethoxy)-2,5-difluorophenyl)[1,3]oxazolo[4,5-c]pyridin-6-yl)oxy)propan-2-yl)acetamide] | 85% | melting point: 199.8 to 199.9 °C |
| CC(=O)NC(C)COC1CCc2oc(-c3ccc(OCC4CC4)c(F)c3)nc2C1 (stereo not shown) [Example 51c, N-(1-((2-(4-(cyclopropylmethoxy)-3-fluorophenyl)-4,5,6,7-tetrahydro-1,3-benzoxazol-5-yl)oxy)propan-2-yl)acetamide] | 84% |  |
| CC(=O)NC(C)COC1CCc2oc(-c3ccc(OCC4CC4)c(F)c3)nc2C1 (stereo not shown) [Example 51d, N-(1-((2-(4-(cyclopropylmethoxy)-3-fluorophenyl)-4,5,6,7-tetrahydro-1,3-benzoxazol-5-yl)oxy)propan-2-yl)acetamide] |  | ACC2 inhibitory rates (%) at 10 μM (human ACC2): 95% |
| CC(=O)N[C@@H](C)COc1cc2oc(-c3ccc(OC[C@H]4CC4(F)F)c(F)c3)nc2cn1 [Example 69, N-((2S)-1-((2-(4-(((1R)-2,2-difluorocyclopropyl)methoxy)-3-fluorophenyl) [1,3]oxazolo[4,5-c]pyridin-6-yl)oxy)propan-2-yl)acetamide] |  | inhibition at 1 µM (human ACC2; 1 μM of the test compound, read-out: ACC2 inhibitory rates (%) at 1 μM): 98% |
| CC(=O)N[C@@H](C)COc1ccc2nc(-c3ccc(OCC4CC4(F)F)c(F)c3)oc2c1F (stereo partly drawn) [Example 80, N-((2S)-1-((2-(4-((2,2-difluorocyclopropyl)methoxy)-3-fluorophenyl)-7-fluoro-1,3-benzoxazol-6-yl)oxy)propan-2-yl)acetamide] | 89% |  |
| CC(=O)N[C@@H](C)COc1cc2oc(-c3cc(F)c(OCC4CC4(F)F)c(F)c3)nc2cn1 (stereo partly drawn) [Example 86, N-((2S)-1-((2-(4-((2,2-difluorocyclopropyl)methoxy)-3,5-difluorophenyl)[1,3]oxazolo[4,5-c]pyridin-6-yl)oxy)propan-2-yl)acetamide] |  | ACC2 inhibitory rates (%) at 10 μM (human ACC2): 89% |
| CC(=O)N[C@@H](C)COc1cc2oc(-c3ccc(OCC4CC4)cc3C)nc2cn1 [Example 117, N-((2S)-1-((2-(4-(cyclopropylmethoxy)-2-methylphenyl)[1,3]oxazolo[4,5-c]pyridin-6-yl)oxy)propan-2-yl)acetamide] | 101% |  |
| CC(=O)N[C@@H](C)COc1cc2oc(-c3cnc(OCC4CC4)cc3C)nc2cn1 [Example 122, N-((2S)-1-((2-(6-(cyclopropylmethoxy)-4-methylpyridin-3-yl)[1,3]oxazolo[4,5-c]pyridin-6-yl)oxy)propan-2-yl)acetamide] | 84% |  |
| CC(=O)N[C@@H](C)COc1ncc2nc(-c3ccc(OCC4CC4(F)F)cc3)oc2n1 (stereo partly drawn) [Example 136, N-((2S)-1-((2-(4-((2,2-difluorocyclopropyl)methoxy)phenyl) [1,3]oxazolo[5,4-d]pyrimidin-5-yl)oxy)propan-2-yl)acetamide] | 84% |  |
| CC(=O)N[C@@H](C)COc1cc2oc(-c3ccc(OCC4(C)CC4(F)F)c(F)c3)nc2cn1 (stereo partly drawn) [Example 159, N-((2S)-1-((2-(4-((2,2-difluoro-1-methylcyclopropyl)methoxy)-3-fluorophenyl)[1,3]oxazolo[4,5-c]pyridin-6-yl)oxy)propan-2-yl)acetamide] | 80% |  |
| CC(=O)N[C@@H](C)COc1ncc2nc(-c3cc(F)c(OC[C@H]4CC4(F)F)c(F)c3)oc2n1 [Example 167, N-((2S)-1-((2-(4-(((1R)-2,2-difluorocyclopropyl)methoxy)-3,5-difluorophenyl)[1,3]oxazolo[5,4-d]pyrimidin-5-yl)oxy)propan-2-yl)acetamide] | 81% |  |

Continued, in another order:

| inhibition at 10 µM (human ACC2) | SMILES | further results |
| --- | --- | --- |
| 83% | CC(=O)N[C@@H](C)COc1cc2oc(-c3cnc(OCC4CC4)c(Cl)c3)nc2cn1 [Example 35, N-((2S)-1-((2-(5-chloro-6-(cyclopropylmethoxy)pyridin-3-yl)[1,3]oxazolo[4,5-c]pyridin-6-yl)oxy)propan-2-yl)acetamide] |  |
| 94% | CC(=O)N[C@@H](C)COc1cc2oc(-c3ccc(OCC4CC4(F)F)c(F)c3)nc2cn1 (stereo partly drawn) [Example 49, N-((2S)-1-((2-(4-((2,2-difluorocyclopropyl)methoxy)-3-fluorophenyl)[1,3]oxazolo[4,5-c]pyridin-6-yl)oxy)propan-2-yl)acetamide] |  |
| 96% | CC(=O)N[C@@H](C)COc1cc2oc(-c3ncc(OCC4CC4)cc3C)nc2cn1 [Example 120, N-((2S)-1-((2-(5-(cyclopropylmethoxy)-3-methylpyridin-2-yl)[1,3]oxazolo[4,5-c]pyridin-6-yl)oxy)propan-2-yl)acetamide] |  |
| 96% | CC(=O)N[C@@H](C)COc1cc2oc(-c3cc(F)c(OCC4CC4(F)F)c(F)c3)nc2cn1 (stereo partly drawn) [Example 131, N-((2S)-1-((2-(4-((2,2-difluorocyclopropyl)methoxy)-3,5-difluorophenyl)[1,3]oxazolo[4,5-c]pyridin-6-yl)oxy)propan-2-yl)acetamide] |  |
| 93% | CC(=O)N[C@@H](C)COc1cc2oc(-c3ncc(OC[C@H]4CC4(F)F)cc3Cl)nc2cn1 [Example 163, N-((2S)-1-((2-(3-chloro-5-(((1R)-2,2-difluorocyclopropyl)methoxy)pyridin-2-yl)[1,3]oxazolo[4,5-c]pyridin-6-yl)oxy)propan-2-yl)acetamide] |  |
